Data reported in patent US20260273081A1, “INHIBITORS OF ETS2-ACTIVATING MOLECULES FOR THE TREATMENT OF INFLAMMATORY DISEASES” (The Francis Crick Institute Limited, priority 2023, published 2026).

Columns and labels:
[1] = system: intestinal mucosal biopsies from patients with active IBD; assay: Human gut explant model: IBD intestinal mucosal biopsies cultured on transwell insert; assay type: cell-based; details: 18 hours culture; for release of IBD-associated inflammatory cytokines from biopsies: PD-0325901 0.5 μM or infliximab 10 µg/ml, vs DMSO, n=10
Protocol: During colonoscopy, intestinal mucosal biopsies (6 per donor) were collected from 10 IBD patients (7 ulcerative colitis, 3 Crohn's disease). All had endoscopically active disease and were not receiving immunosuppressive or biologic therapies. All biopsies were collected from a single inflamed site. All patients provided written informed consent. Ethical approval was provided by the London-Brent Regional Ethics Committee (REC: 21/LO/0682). Biopsies were collected into Opti-MEM and within 1 hour were weighed and placed in pairs onto a transwell insert (ThermoFisher)—designed to create an air-liquid interface70—in a 24-well plate. Each well contained 1 ml media and was supplemented with either DMSO (vehicle control), PD-0325901 (0.5 μM) or infliximab ([…]; MSD). Media: Opti-MEM I (Gibco); GlutaMAX (ThermoFisher): 10% FBS (ThermoFisher), MEM Non-Essential Amino Acids (ThermoFisher); 1% sodium pyruvate (ThermoFisher); 1% penicillin/streptomycin (ThermoFisher); 500 µg/ml gentamicin (Merck). After 18 hours, supernatants and biopsies were snap frozen. Supernatant cytokine concentrations were quantified using LEGENDplex Human Inflammation Panel (Biolegend). RNA was extracted from biopsies and libraries prepared as described earlier (n=9, RNA from one donor was too degraded). Sequencing was performed on a NovaSeq 6000 (100 bp, PE reads). Data were processed as described earlier and GSVA was performed for ETS2-regulated genes and biopsy-derived signatures of IBD-associated inflammation.

[2] = system: inflammatory macrophages (TPP); assay: MEK inhibitor (PD-0325901) testing in inflammatory macrophages (TPP), RNA-seq and fGSEA; assay type: cell-based, human
Protocol: Leukocyte cones from healthy donors were obtained from NHS Blood and Transplant (Cambridge Blood Donor Centre, Colindale Blood Centre, or Tooting Blood Donor Centre). Peripheral blood mononuclear cells (PBMCs) were isolated by density centrifugation (Histopaque 1077, Sigma) and monocytes were positively selected using CD14 Microbeads (Miltenyi Biotec). Macrophage differentiation was performed using conditions that model chronic inflammation (TPP): 3 days GM-CSF (50 ng/ml, Peprotech) followed by 3 days GM-CSF, TNFα (50 ng/ml, Peprotech), PGE2 (1 μg/ml, Sigma Aldrich), and […] (1 μg/ml, Invivogen). […]
RNA was isolated from macrophage lysates (AllPrep DNA/RNA Micro Kit, Qiagen) and sequencing libraries prepared from 10 ng RNA using the SMARTer Stranded Total RNA-Seq Kit v2-Pico Input Mammalian (Takara) following the manufacturer's instructions. Libraries were sequenced on a NextSeq2000 (50 bp, PE reads: CRISPR-based loss-of-function, roxadustat and PD-0325901 experiments) or a NovaSeq6000 (100 bp, PE reads: overexpression experiments). Reads were trimmed using Trim Galore (Phred score 24), filtered to remove reads <20 bp, and ribosomal reads were removed using the BBSplit function of BBMap (BBMap, sourceforge.net/projects/bbmap/) with the Human ribosomal DNA complete repeating unit (GenBank: U13369.1). […]

[3] = system: ETS2; assay: CRISPR-Cas9 editing efficiency at the ETS2 locus in primary monocytes; assay type: cell-based, human; details: Cas9 RNPs nucleofected into primary monocytes; ICE analysis
Protocol: (§1) gRNA sequences were designed using CRISPick (formerly GPP sgRNA Designer) and synthesised by IDT. gRNA sequences: chr21q22 5′ gRNA, […]; chr21q22 3′ gRNA, […]; ETS2 gRNA1, […]; ETS2 gRNA2, […]. Alt-R CRISPR-Cas9 Negative Control crRNA #1 (IDT) was used as a non-targeting control. Cas9-gRNA ribonucleoproteins were assembled as described previously and nucleofected into 5×10^6 monocytes in 100 μL nucleofection buffer (Human Monocyte Nucleofection Kit, Lonza) using a Nucleofector 2b (Lonza, program Y-001). After nucleofection, monocytes were immediately transferred into 5 ml of pre-warmed culture media in a 6-well flat-bottomed plate, and differentiated into macrophages under TPP conditions. Editing efficiency was quantified by PCR amplification of the target region in extracted DNA (chr21q22_Fw primer, […]; chr21q22_Rv, […]; ETS2_g1_Fw, […]; ETS2_g1_Rv, […]; ETS2_g2_Fw, […]; ETS2_g2_Rv, […]). Editing efficiency at the chr21q22 locus was measured via quantification of amplified fragments (2100 Bioanalyzer, Agilent) as previously described. Editing efficiency for individual gRNAs was assessed using the Inference of CRISPR Edits tool (ICE, Synthego).

[4] = system: macrophages; assay: Viability and myeloid markers of macrophages after nucleofection with Cas9 RNPs and TPP differentiation; assay type: cell-based, human; details: TPP differentiation
Protocol: as §1
Expression of myeloid markers was assessed by flow cytometry (BD LSRFortessaTMX-20). […] Data were analysed using FlowJo v10 (BD Biosciences).

Row | Compound | release of IBD-associated inflammatory cytokines from biopsies [1] | expression of ETS2-regulated genes in IBD biopsies (GSVA) ([1]; PD-0325901 0.5 μM, n=9) | validated transcriptional inflammation score (bMIS, GSVA) ([1]; PD-0325901 0.5 μM, n=9) | anti-inflammatory activity (relative expression of chr21q22-regulated genes), phenocopying ETS2 disruption or chr21q22 enhancer deletion ([2]; PD-0325901 0.5 μM added day 4, harvested day 6, vs vehicle (DMSO), n=3) | inflammatory pathways (fGSEA, Gene Ontology Biological Pathways) ([2]; PD-0325901 0.5 μM, day 4 to day 6, vs vehicle) | editing efficiency at the ETS2 locus, mean indel rate [3] | viability of macrophages following nucleofection with Cas9 RNPs and differentiation, mean [4]
1 | O=C(NOC[C@H](O)CO)c1ccc(F)c(F)c1Nc1ccc(I)cc1F [PD-0325901] | significantly reduced | reduced | significant improvement | potent anti-inflammatory activity | downregulation of multiple inflammatory pathways | – | –
2 | gRNA1: ETS2 guide RNA, CAGACACAGAAUUACCCCAA, delivered as Cas9 RNP (delivered as Cas9 ribonucleoprotein complex, further chemistry not given here) | – | – | – | – | – | 89.7% | 98.3%
3 | gRNA2: ETS2 guide RNA, UUGCUGCACGGGGUUAACAA, delivered as Cas9 RNP (delivered as Cas9 ribonucleoprotein complex, further chemistry not given here) | – | – | – | – | – | 78.6% | 98.6%
4 | infliximab | comparable levels | – | – | – | – | – | –
